Values of other authors in patent US5229134A, “Pharmaceutical compositions” (Laboratories Smith Kline & French, priority 1989, dated 1993).

Conditions: plasma levels

## CN/C(=N/CCSCc1nc[nH]c1C)NC#N [cimetidine]
  therapeutically effective concentration in plasma: 0.5 mg/L
